# From paper PMC5432742, “Vasorelaxing and antihypertensive activities of synthesized peptides derived from computer-aided simulation of pepsin hydrolysis of yam dioscorin” (Botanical Studies, 2014)
# Where two headings read alike, the source gives them in different places.
# Assays:
# [1] = trolox equivalents (TE); ref Hernández-Ledesma et al. 2005; cited from earlier work
# [2] = test system: endothelium-intact rat thoracic aortic rings; test: Relaxation of phenylephrine-induced tension in endothelium-intact rat thoracic aortic rings ex vivo; parameters: species or system Sprague-Dawley rat
# Procedure: (§1) Effects of four peptides and captopril on vascular tension were examined following the previous method (Wang et al. [2001]). Male Sprague–Dawley rats were killed by decapitation, and sections of the thoracic aorta between the aortic arch and the diaphragm were excised carefully and placed in a Petri dish with oxygenated Krebs’ buffer (120 mM NaCl, 4.5 mM KCl, 2.5 mM CaCl2, 1 mM MgSO4, 27 mM NaHCO3, 1 mM KH2PO4, 10 mM glucose, pH 7.4, with 95% O2, 5% CO2) and gently dissected free of fat and connective tissue. The endothelium was removed by gently rubbing the intimal layer of the vessel with a wire. The isolated aortic rings, 3 to 4 mm in length with or without the endothelium, were fixed isometrically in organ chambers under passive tension (1.8 g) for 60 min. Changes in vascular tension were recorded with a polygraph (Gould, model 2400, Valley View, OH, USA) via a force displacement transducer (Grass FT03, Quincy, MA, USA). After equilibration, the near maximal concentration was induced by PE (0.3 μM). When the rings achieved a stable tension, the acetylcholine (3 μM) was added to the bath to assess endothelial integrity. The relaxing effects of KTCGY, KTCGYKTCGY, TCGYTCGY, KRIHF, and captopril on PE (0.3 μM) pre-contracted endothelium-intact or endothelium-denuded aortic rings were examined. When PE treatments reached a steady plateau (considered as 100%), KTCGY, KTCGYKTCGY, TCGYTCGY, KRIHF, and captopril were then tested at cumulative concentrations (0.1 to 100 μM) for their ability to induce aortic ring relaxations.
# (§2) Figure 2 Vasorelaxing activity of endothelium-intact and endothelium-denuded SD rat aortic rings in phenylephrine-induced tensions. (A) KTCGY, (B) KTCGYKTCGY, (C) TCGYTCGY, (D) KRIHF, and (E) captopril on Data were expressed as mean ± S.E.
# [3] = test system: endothelium-denuded rat thoracic aortic rings; test: Relaxation of phenylephrine-induced tension in endothelium-denuded rat thoracic aortic rings ex vivo; parameters: species or system Sprague-Dawley rat; conditions: PE 0.3 μM; for aortic ring relaxation in endothelium-denuded rings (in words): cumulative 0.1 to 100 μM; for PE-induced endothelium-denuded aortic ring tension (PE plateau = 100%): 100 μM test substance, endothelium-denuded rings
# Procedure: as §1, §2
# [4] = test system: spontaneously hypertensive rats (SHRs); test: Antihypertensive effect in SHRs after a single oral administration (tail-cuff blood pressure); format: in vivo, rat; conditions: SHR, N = 6
# Procedure: Experimental procedures were reviewed and approved by the Institutional Animal Care and Use Committee of Taipei Medical University (LAC-95-0076, LAC-97-0117, and LAC-100-0038). Male SHRs (18–28 weeks old; from National Laboratory Animal Center, Taipei, Taiwan) were housed individually in steel cages kept at 24°C under a 12-h light–dark cycle, with free access to water and a standard mouse/rat chow (Prolab® RMH2500, 5P14 Diet, PMI Nutrition International Brentwood, MO, USA). SHRs were randomly divided into 4 groups (N = 6 of each group), KTCGY or KRIHF at concentration of 10 mg/kg and 20 mg/kg was orally administered to the SHRs, and the SBP were measured after 0, 2, 4, 6, 8, and 24 h by using an indirect tail-cuff blood pressure meter (BP98-A, Softron, Tokyo, Japan). Distilled water (0.5 ml) was administered to the SHRs in the blank group. The captopril (10 mg/kg) was used as the positive control.
# Figure 3 Antihypertensive activity of (A) KTCGY and (B) KRIHF on systolic blood pressure of spontaneously hypertensive rats (SHRs). KTCGY or KRIHF at concentration of 10 mg/kg and 20 mg/kg was orally administered to the SHRs (6 rats/group), and the SBP were measured after 0, 2, 4, 6, 8, and 24 h by using an indirect tail-cuff blood pressure meter (BP98-A, Softron, Tokyo, Japan). Distilled water (0.5 ml) was administered to the SHRs in the blank group. The captopril (10 mg/kg) was used as the positive control.
# ACE = conditions: read-out: ACE inhibition IC50, cited from earlier work
# Text: The untreated high blood pressure is considered to be the central factor in stroke which accounts approximately 33% deaths (Mark and Davis [2000]). There are several classes of pharmacological agents which have been used in the treatment of hypertension, and one class of antihypertensive drugs known as angiotensin I converting enzyme (ACE) inhibitors is associated with a low rate of adverse side effects and is the preferred class of antihypertensive agents when treating patients with concurrent secondary diseases or cardiovascular diseases (Zaman et al. [2002]).
# [5] = test system: spontaneously hypertensive rats (SHRs); conditions: ref Fujita et al. 2000; cited from earlier work
# Text: The untreated high blood pressure is considered to be the central factor in stroke which accounts approximately 33% deaths (Mark and Davis [2000]). There are several classes of pharmacological agents which have been used in the treatment of hypertension, and one class of antihypertensive drugs known as angiotensin I converting enzyme (ACE) inhibitors is associated with a low rate of adverse side effects and is the preferred class of antihypertensive agents when treating patients with concurrent secondary diseases or cardiovascular diseases (Zaman et al. [2002]). ACE (peptidyldipeptide hydr ...
# ACE (rabbit lung) = test: ACE inhibitory assay screening (FAPGG substrate, absorbance at 345 nm); format: biochemical; conditions: peptide 40 μM; 0.5 mM FAPGG in 50 mM Tris-HCl pH 7.5, 0.3 M NaCl; 90 sec, room temperature
# Procedure: The ACE inhibitory activity was measured following the previous reports with some modifications (Hsu et al. [2002]). Each synthesized peptide was dissolved in DMSO to 4 mM as stocks. The 1 ml, 0.5 mM FAPGG (dissolved in 50 mM Tris–HCl buffer, pH 7.5, containing 0.3 M NaCl) was mixed with 12.2 μl peptide solution, and then twenty μl ([…]) of commercial ACE (stock solution, 1U/ ml) was added. The 0.1% DMSO solution was used instead of sample solution for blank experiments (ΔAblank/min). The decreased absorbance at 345 nm (ΔAsample/min) was recorded during 90 sec at room temperature. The ACE inhibition (%) was calculated as followed: [1 - (ΔAsample/min ÷ ΔAblank/min)] × 100.
# Figure 1 ACE inhibition by 23 synthesized peptides (40 μM) derived from a computer-aided simulation of pepsin hydrolysis of yam dioscorin. The 0.1% DMSO solution was used instead of sample solution for blank experiments (ΔAblank/min). The decreased absorbance at 345 nm (ΔAsample/min) was recorded during 90 sec at room temperature. The ACE inhibition (%) was calculated as followed: [1 - (ΔAsample/min ÷ ΔAblank/min)] × 100. The synthesized peptides included (1) KTCGNGME, (2) PPCSE, (3) CDDRVIRTPLT, (4) KTCGY, (5) PPCTE, (6) RDNGVIF, (7) KRIHF, (8) RRDY, (9) RSVF, (10) PTNF, (11) GISW, (12) MGSF, (13) VSIL, (14) HSPA, (15) DPF, (16) RY, (17) RF, (18) NW, (19) RL, (20) GVI, (21) GSL, (22) SY, and (23) GPA. […]
# [6] = test system: spontaneously hypertensive rats (SHRs); test: Antihypertensive effect in SHRs after a single oral administration (tail-cuff blood pressure); format: in vivo, rat; conditions: 10 and 20 mg/kg single oral dose, SHR; data not shown
# [7] = 100 μM test substance, PE 0.3 μM, endothelium-intact rings, mean ± S.E. (Figure 2), SEM
compound,measurement,setting,value
N[C@@H](CS)C(=O)O [Cys],oxygen radical absorbance capacity (ORAC) activity,[1],0.1492 μmole TE/μmole
N[C@@H](Cc1c[nH]cn1)C(=O)O [His],oxygen radical absorbance capacity (ORAC) activity,[1],0.073 μmole TE/μmole
CSCC[C@H](N)C(=O)O [Met],oxygen radical absorbance capacity (ORAC) activity,[1],1.126 μmole TE/μmole
N[C@@H](Cc1ccccc1)C(=O)O [Phe],oxygen radical absorbance capacity (ORAC) activity,[1],0.0025 μmole TE/μmole
N[C@@H](Cc1c[nH]c2ccccc12)C(=O)O [Trp],oxygen radical absorbance capacity (ORAC) activity,[1],4.649 μmole TE/μmole
N[C@@H](Cc1ccc(O)cc1)C(=O)O [Tyr],oxygen radical absorbance capacity (ORAC) activity,[1],1.574 μmole TE/μmole
"C[C@H](CS)C(=O)N1CCC[C@H]1C(=O)O [captopril, reference compound]",PE-induced aortic ring tension (PE plateau = 100%),"[2]; 100 µM, SEM",26.81 ± 5.54%
same,aortic ring relaxation in endothelium-denuded rings (in words),[3],not endothelium-denuded
same,average reduced SBP,"[4]; 10 mg/kg single oral dose, 2-h",26.85 mmHg
same,average reduced SBP,"[4]; 10 mg/kg single oral dose, 4-h",24.97 mmHg
same,average reduced SBP,"[4]; 10 mg/kg single oral dose, 6-h",29.82 mmHg
same,average reduced SBP,"[4]; 10 mg/kg single oral dose, 8-h",24 mmHg
same,average reduced SBP,"[4]; 10 mg/kg single oral dose, 24-h",13.80 mmHg
ERKIKVYL,IC50,ACE; ref Fujita et al. 2000,1.2 µM
same,reduction of blood pressure in SHRs (in words),[5],none of them were effective
FFGRCVSP,IC50,ACE; ref Fujita et al. 2000,0.4 µM
same,reduction of blood pressure in SHRs (in words),[5],none of them were effective
"KRIHF [penta-peptide, residues 118–122 of dioscorin A and dioscorin B]",ACE inhibition (%),ACE (rabbit lung),higher than 50%
same,PE-induced aortic ring tension (PE plateau = 100%),"[2]; 10 μM test substance, PE 0.3 μM, endothelium-intact rings",80.26 ± 7.82%
same,PE-induced aortic ring tension (PE plateau = 100%),[2]; [7],19.19 ± 7.63%
same,aortic ring relaxation in endothelium-denuded rings (in words),[3],not endothelium-denuded
same,average reduced SBP,"[4]; 10 mg/kg single oral dose, 2-h",17.30 mmHg
same,average reduced SBP,"[4]; 10 mg/kg single oral dose, 4-h",21.95 mmHg
same,average reduced SBP,"[4]; 10 mg/kg single oral dose, 6-h",21.47 mmHg
same,average reduced SBP,"[4]; 10 mg/kg single oral dose, 8-h",16.65 mmHg
same,average reduced SBP,"[4]; 20 mg/kg single oral dose, 2-h",18.57 mmHg
same,average reduced SBP,"[4]; 20 mg/kg single oral dose, 4-h",19.64 mmHg
same,average reduced SBP,"[4]; 20 mg/kg single oral dose, 6-h",20.87 mmHg
same,average reduced SBP,"[4]; 20 mg/kg single oral dose, 8-h",8.99 mmHg
same,lowering of diastolic blood pressure (in words),[6],not diastolic blood pressure
"KTCGY [penta-peptide, residues 52–56 of dioscorin B]",ACE inhibition (%),ACE (rabbit lung),higher than 50%
same,PE-induced aortic ring tension (PE plateau = 100%),[2]; [7],26.97 ± 7.48%
same,aortic ring relaxation in endothelium-denuded rings (in words),[3],not endothelium-denuded
same,average reduced SBP,"[4]; 10 mg/kg single oral dose, 6-h",24.17 mmHg
same,average reduced SBP,"[4]; 10 mg/kg single oral dose, 8-h",11.93 mmHg
same,average reduced SBP,"[4]; 20 mg/kg single oral dose, 2-h",24.20 mmHg
same,average reduced SBP,"[4]; 20 mg/kg single oral dose, 4-h",26.24 mmHg
same,average reduced SBP,"[4]; 20 mg/kg single oral dose, 6-h",31.03 mmHg
same,average reduced SBP,"[4]; 20 mg/kg single oral dose, 8-h",21.40 mmHg
same,lowering of diastolic blood pressure (in words),[6],not diastolic blood pressure
KTCGYKTCGY [two-repeated KTCGY],PE-induced aortic ring tension (PE plateau = 100%),[2]; [7],46.05 ± 8.02%
same,PE-induced endothelium-denuded aortic ring tension (PE plateau = 100%),[3],66.59 ± 14.84%
"RADHPF [ovokinin (2–7), hexa-peptide isolated from chymotryptic ovalbumin hydrolysates]",IC50,ACE; ref Matoba et al. 1999,> 1000 µM
TCGYTCGY [two-repeated TCGY],PE-induced aortic ring tension (PE plateau = 100%),[2]; [7],43.52 ± 6.42%
same,PE-induced endothelium-denuded aortic ring tension (PE plateau = 100%),[3],74.44 ± 15.13%
